Reference: patent US7101849B1 (The University of Queensland, priority 1998, dated 2006)

How the values were obtained:
N-type calcium channels = N-type calcium channels (Homo sapiens, UniProt Q00975); settings: cited from earlier work
N-type calcium channel = N-type calcium channel (Rattus norvegicus, UniProt Q02294); assay type: binding
P/Q-type channels = P/Q-type channels (Homo sapiens, UniProt O00555); settings: cited from earlier work
peripheral channels = settings: in vivo; cited from earlier work

Sequence of N-type calcium channel (Q02294 whole entry, looked up): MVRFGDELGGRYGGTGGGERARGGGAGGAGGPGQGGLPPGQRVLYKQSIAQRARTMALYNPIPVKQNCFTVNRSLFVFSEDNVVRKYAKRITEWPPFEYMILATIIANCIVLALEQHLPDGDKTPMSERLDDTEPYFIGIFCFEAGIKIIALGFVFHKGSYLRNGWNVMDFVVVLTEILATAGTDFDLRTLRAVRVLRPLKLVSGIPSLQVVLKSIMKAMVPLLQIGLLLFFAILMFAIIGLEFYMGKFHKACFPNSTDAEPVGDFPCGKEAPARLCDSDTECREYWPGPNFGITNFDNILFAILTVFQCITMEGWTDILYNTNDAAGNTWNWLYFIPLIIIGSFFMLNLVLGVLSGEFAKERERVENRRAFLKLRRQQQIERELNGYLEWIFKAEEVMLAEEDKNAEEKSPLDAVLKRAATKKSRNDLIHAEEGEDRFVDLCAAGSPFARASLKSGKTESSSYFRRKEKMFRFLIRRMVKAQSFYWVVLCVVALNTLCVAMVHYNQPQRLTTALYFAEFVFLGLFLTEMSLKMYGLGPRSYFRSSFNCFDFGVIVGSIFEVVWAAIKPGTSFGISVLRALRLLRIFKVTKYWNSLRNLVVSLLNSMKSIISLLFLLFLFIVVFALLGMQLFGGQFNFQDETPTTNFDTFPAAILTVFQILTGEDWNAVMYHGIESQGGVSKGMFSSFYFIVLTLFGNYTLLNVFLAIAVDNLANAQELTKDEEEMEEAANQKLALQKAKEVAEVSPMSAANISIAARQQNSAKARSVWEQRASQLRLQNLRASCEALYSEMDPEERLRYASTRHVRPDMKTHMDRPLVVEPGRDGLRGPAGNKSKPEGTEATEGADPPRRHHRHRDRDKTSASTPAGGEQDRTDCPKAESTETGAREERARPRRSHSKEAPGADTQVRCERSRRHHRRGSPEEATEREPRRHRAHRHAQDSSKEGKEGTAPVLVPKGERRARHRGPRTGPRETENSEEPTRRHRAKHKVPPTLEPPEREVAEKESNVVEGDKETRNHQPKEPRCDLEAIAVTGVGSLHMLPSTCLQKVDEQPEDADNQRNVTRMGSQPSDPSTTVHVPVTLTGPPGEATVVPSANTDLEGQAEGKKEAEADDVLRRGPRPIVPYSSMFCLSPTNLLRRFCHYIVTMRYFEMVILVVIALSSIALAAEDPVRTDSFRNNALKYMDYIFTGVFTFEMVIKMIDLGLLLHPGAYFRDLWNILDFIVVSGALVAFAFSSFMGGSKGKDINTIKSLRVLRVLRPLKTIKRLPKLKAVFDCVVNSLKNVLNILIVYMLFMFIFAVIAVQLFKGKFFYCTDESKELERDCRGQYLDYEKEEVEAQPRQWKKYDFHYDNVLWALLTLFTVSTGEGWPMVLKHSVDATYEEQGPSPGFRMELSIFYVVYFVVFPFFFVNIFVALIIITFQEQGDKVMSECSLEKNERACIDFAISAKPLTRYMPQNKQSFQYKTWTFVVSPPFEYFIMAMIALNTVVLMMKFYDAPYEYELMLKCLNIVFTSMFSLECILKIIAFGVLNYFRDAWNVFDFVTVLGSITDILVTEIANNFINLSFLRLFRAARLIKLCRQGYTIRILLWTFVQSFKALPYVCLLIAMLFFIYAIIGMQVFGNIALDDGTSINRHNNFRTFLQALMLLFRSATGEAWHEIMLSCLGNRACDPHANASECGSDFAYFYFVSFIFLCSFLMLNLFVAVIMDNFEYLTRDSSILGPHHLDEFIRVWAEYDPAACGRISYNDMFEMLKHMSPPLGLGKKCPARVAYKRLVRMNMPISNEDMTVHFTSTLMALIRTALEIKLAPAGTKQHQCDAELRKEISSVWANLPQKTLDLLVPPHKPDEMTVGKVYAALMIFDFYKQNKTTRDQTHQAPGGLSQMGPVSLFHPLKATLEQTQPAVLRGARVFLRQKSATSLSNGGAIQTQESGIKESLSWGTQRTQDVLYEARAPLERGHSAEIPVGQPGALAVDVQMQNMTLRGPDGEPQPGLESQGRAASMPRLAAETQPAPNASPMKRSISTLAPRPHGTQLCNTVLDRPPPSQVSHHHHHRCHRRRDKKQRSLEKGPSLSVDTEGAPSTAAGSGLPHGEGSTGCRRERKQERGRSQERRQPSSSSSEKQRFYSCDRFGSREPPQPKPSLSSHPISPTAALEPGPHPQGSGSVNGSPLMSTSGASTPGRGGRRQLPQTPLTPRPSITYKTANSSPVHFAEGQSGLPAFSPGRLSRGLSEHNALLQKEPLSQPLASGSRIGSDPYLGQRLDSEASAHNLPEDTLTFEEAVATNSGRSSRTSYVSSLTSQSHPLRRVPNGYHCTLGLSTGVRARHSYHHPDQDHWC
Sequence of N-type calcium channels (Q00975 whole entry, looked up): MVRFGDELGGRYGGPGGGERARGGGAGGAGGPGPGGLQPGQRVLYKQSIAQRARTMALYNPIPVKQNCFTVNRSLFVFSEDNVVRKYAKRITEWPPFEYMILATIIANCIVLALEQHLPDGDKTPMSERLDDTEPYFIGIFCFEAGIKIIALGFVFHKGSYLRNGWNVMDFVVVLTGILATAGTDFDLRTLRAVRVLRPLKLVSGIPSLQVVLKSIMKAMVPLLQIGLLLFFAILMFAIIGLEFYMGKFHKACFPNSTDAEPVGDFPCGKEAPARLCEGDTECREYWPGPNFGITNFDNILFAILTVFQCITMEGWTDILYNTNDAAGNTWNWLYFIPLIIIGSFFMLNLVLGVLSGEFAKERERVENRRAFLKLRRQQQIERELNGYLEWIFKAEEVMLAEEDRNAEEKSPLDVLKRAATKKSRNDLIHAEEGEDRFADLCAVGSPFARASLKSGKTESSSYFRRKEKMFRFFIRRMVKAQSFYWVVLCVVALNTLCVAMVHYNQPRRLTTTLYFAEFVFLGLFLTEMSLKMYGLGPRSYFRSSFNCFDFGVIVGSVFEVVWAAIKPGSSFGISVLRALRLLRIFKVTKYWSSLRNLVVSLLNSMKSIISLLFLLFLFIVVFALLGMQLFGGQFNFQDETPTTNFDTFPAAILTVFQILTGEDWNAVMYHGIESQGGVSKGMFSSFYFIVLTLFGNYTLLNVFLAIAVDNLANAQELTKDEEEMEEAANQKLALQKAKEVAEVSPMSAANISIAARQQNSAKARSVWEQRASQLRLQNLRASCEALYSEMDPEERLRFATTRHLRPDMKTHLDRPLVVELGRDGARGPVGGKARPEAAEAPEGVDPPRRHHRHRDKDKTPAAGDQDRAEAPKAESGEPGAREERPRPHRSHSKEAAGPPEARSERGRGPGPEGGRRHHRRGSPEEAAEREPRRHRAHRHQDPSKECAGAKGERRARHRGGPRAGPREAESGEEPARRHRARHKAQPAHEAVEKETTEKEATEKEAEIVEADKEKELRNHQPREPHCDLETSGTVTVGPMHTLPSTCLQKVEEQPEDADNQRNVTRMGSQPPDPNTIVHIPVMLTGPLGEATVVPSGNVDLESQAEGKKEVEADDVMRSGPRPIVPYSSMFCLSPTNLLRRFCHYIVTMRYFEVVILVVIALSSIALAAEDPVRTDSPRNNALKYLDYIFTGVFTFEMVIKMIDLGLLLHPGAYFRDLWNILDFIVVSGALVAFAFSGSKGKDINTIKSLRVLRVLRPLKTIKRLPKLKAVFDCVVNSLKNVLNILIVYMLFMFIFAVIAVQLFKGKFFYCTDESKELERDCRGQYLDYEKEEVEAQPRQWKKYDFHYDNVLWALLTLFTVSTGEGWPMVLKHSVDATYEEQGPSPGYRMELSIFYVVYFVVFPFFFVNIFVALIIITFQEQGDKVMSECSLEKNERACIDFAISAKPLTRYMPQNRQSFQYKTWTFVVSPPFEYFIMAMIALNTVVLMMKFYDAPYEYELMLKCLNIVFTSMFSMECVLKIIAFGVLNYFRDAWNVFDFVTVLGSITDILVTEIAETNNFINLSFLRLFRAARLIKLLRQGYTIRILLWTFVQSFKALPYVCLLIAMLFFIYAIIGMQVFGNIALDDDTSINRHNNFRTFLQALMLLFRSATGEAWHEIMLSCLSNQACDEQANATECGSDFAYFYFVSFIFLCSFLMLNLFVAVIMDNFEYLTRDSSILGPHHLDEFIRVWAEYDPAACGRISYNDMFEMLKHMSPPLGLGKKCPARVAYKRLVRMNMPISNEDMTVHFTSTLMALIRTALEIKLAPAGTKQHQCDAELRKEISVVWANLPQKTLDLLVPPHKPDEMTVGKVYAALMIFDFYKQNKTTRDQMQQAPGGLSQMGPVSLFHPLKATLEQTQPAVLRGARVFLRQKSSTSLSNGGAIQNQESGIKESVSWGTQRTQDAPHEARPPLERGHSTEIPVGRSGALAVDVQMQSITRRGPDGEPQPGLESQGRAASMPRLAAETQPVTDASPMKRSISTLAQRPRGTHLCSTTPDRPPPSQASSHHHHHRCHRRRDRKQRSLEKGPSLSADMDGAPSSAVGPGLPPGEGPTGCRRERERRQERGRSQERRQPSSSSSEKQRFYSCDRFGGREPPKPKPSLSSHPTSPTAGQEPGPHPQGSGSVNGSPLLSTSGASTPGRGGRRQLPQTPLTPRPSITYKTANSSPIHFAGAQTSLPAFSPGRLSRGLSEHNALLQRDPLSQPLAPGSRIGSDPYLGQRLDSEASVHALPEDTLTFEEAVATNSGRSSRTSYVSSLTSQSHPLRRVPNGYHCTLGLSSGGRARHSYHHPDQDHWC

| Compound | affinity / selectivity for N-type calcium channels (N-type calcium channels) | potency for N-type calcium channel in receptor binding assays (N-type calcium channel) | selectivity for N-type calcium channel over P/Q-type calcium channel in receptor binding assays (N-type calcium channel) | further results |
| --- | --- | --- | --- | --- |
| CKSOGSSCSOTSYNCCRSCNOYTKRCY [GVIA] | high level of selectivity |  |  | antagonism of N-type calcium channels (N-type calcium channels): potent antagonist; reversibility of binding to N-type calcium channels (N-type calcium channels): irreversible |
| CKSKGAKCSRLMYDCCSGSCSGTVGRC [R^10-CVID] |  | high potency | high selectivity |  |
| CKSKGAKCSKLMYDCCSGSCSGTVGRC [CVID] |  | high potency | high selectivity |  |
| CKGKOAPCRKTMYDCCSGSCGRRGKC [MVIIC] | low affinity |  |  | binding to P/Q-type channels (P/Q-type channels): bind strongly |
| CSCC[C@@H]1NC(=O)[C@H](CC(C)C)NC(=O)[C@H](CCCNC(=N)N)NC(=O)[C@H](CO)NC(=O)[C@@H]2CSSC[C@@H]3NC(=O)[C@H](CO)NC(=O)CNC(=O)[C@H]([C@@H](C)O)NC(=O)[C@H](CSSC[C@H](N)C(=O)N[C@@H](CCCCN)C(=O)NCC(=O)N[C@@H](CCCCN)C(=O)NCC(=O)N[C@@H](C)C(=O)N[C@@H](CCCCN)C(=O)N2)NC(=O)[C@H](CSSC[C@@H](C(N)=O)NC(=O)[C@H](CCCCN)NC(=O)CNC(=O)[C@H](CO)NC(=O)[C@H](CCCNC(=N)N)NC3=O)NC(=O)[C@H](CC(=O)O)NC(=O)[C@H](Cc2ccc(O)cc2)NC1=O [SNX-111] |  |  |  | hypotension (peripheral channels): cause hypotension |
